Values joined by “and” are separate entries in the source; they are usually repeats but may differ in a detail not shown here. Identical values can stand only once. Counter-ions that a name gives are not always drawn. Like-named read-outs stand apart in the source and are kept apart here.

The test system of one assay is Sphaerotheca fuliginea. It is filed as in vivo.
For another assay, the system named is Erysiphe graminis. The experiment in a line: Test on preventive effect against wheat powdery mildew (Test Example 1). It counts as in vivo.
[1] abbreviates: partner fungicide alone 125 ppm.
Setting [2] is: partner fungicide alone 250 ppm.
Setting [3] is: partner fungicide alone 500 ppm.
[4] abbreviates: partner fungicide alone 0.125 ppm.
The mark [5] stands for this setting: partner fungicide alone 0.5 ppm.

Consider `CC#Cc1cc(C)nc(Nc2ccccc2)n1` [mepanipyrim], for which the “diseased area ratio to non-treated section” value in the assay on Sphaerotheca fuliginea (partner fungicide alone 63 ppm) and with Sphaerotheca fuliginea (setting [1]) was 0.5 in each case.

As for `CCO[PH](=O)O` [fosetyl-Al], the “diseased area ratio to non-treated section” value in the assay on Erysiphe graminis (fungicide (b) alone 500 ppm) and with Erysiphe graminis (fungicide (b) alone 1000 ppm) was 97.5 in each case.

Turning to `Cc1ccsc1C(=O)NC(C)(C)C(=O)c1ccc(Cl)c(Cl)c1` [No. 2], the “diseased area ratio to non-treated section” value was 70.0 in the assay on Sphaerotheca fuliginea (Compound No.x alone 2 ppm); 50.0 and 32.5 in the assay on Sphaerotheca fuliginea (Compound No.x alone 4 ppm).

Regarding `CON=C(C(=O)OC)c1ccccc1CON=C(C)c1cccc(C(F)(F)F)c1` [trifloxystrobin], the figures for the “diseased area ratio to non-treated section” value with Sphaerotheca fuliginea (partner fungicide alone 4 ppm) and in the assay on Sphaerotheca fuliginea (partner fungicide alone 200 ppm) were 85.0 and 50.0, respectively. The “diseased area ratio to non-treated section (experimental value)” value with Sphaerotheca fuliginea (single use at 4 ppm) worked out at 85.0; in the assay with Sphaerotheca fuliginea (single use at 200 ppm), 50.0.

In the case of `CCCN(CC)CC1COC2(CCC(C(C)(C)C)CC2)O1` (stereo not shown) [spiroxamine], the figures for the “diseased area ratio to non-treated section” value in the assay with Erysiphe graminis (fungicide (b) alone 12.5 ppm), in the assay with Erysiphe graminis (fungicide (b) alone 25 ppm) and in the assay on Erysiphe graminis (fungicide (b) alone 50 ppm) were 97.0, 15.2 and 6.1, respectively.

`C/C=C/C(=O)Oc1c(C(C)CCCCCC)cc([N+](=O)[O-])cc1[N+](=O)[O-]` (stereo not shown) [meptyldinocap]: the “diseased area ratio to non-treated section (experimental value)” value in the assay on Sphaerotheca fuliginea (single use at 3 ppm) stood at 2.5.

As for `CCCOC(=O)NCCCN(C)C` [propamocarb hydrochloride], the “diseased area ratio to non-treated section (experimental value)” value in the assay on Sphaerotheca fuliginea (single use at 10 ppm) came out at 95.0; in the assay with Sphaerotheca fuliginea (single use at 100 ppm) it was 95.0; in the assay on Sphaerotheca fuliginea (single use at 1000 ppm), 92.5.

`Cc1cc(C2CC2)nc(Nc2ccccc2)n1` [cyprodinil]: the figures for the “diseased area ratio to non-treated section” value with Erysiphe graminis (fungicide (b) alone 31 ppm), in the assay on Erysiphe graminis (fungicide (b) alone 63 ppm) and in the assay with Erysiphe graminis (fungicide (b) alone 125 ppm) were 75.0, 70.0 and 32.5, respectively.

As for `COc1cc(C)c(C(=O)c2c(OC)ccc(Br)c2C)c(OC)c1OC` [metrafenone, 3′-bromo-2,3,4,6′-tetramethoxy-2′,6-dimethylbenzophenone], the “diseased area ratio to non-treated section” value came to 100 with Erysiphe graminis (fungicide (b) alone 0.0075 ppm) and 35.0 in the assay with Erysiphe graminis (fungicide (b) alone 0.03 ppm).

Consider `N#Cc1c[nH]cc1-c1cccc2c1OC(F)(F)O2` [fludioxonil], for which the “diseased area ratio to non-treated section” value with Erysiphe graminis (fungicide (b) alone 125 ppm) was 95.0; with Erysiphe graminis (fungicide (b) alone 250 ppm), 90.0; in the assay with Erysiphe graminis (fungicide (b) alone 500 ppm), 85.0.

Consider `CCCOC/C(=N\c1ccc(Cl)cc1C(F)(F)F)n1ccnc1` [triflumizole], for which the “diseased area ratio to non-treated section” value is 85 in the assay with Sphaerotheca fuliginea (partner fungicide alone 3 ppm) and 70 with Sphaerotheca fuliginea (partner fungicide alone 12 ppm).

Take `CO/C=C(/C(=O)OC)c1ccccc1Oc1cc(Oc2ccccc2C#N)ncn1` [azoxystrobin]: the “diseased area ratio to non-treated section” value is 37.5 and 55.0 with Sphaerotheca fuliginea (partner fungicide alone 31 ppm); 35.0 and 55.0 in the assay on Sphaerotheca fuliginea (partner fungicide alone 63 ppm); 35.0 in the assay with Sphaerotheca fuliginea (setting [1]).

Turning to `S1SSSSSSS1` [sulfur], the “diseased area ratio to non-treated section” value is given as 97.5 with Erysiphe graminis (fungicide (b) alone 50 ppm) and 40.0 with Erysiphe graminis (fungicide (b) alone 500 ppm).

Regarding potassium phosphite, the entries for the “diseased area ratio to non-treated section (experimental value)” value with Sphaerotheca fuliginea (single use at 100 ppm) and in the assay with Sphaerotheca fuliginea (single use at 500 ppm) were 85.0 and 80.0, respectively.

`N#Cc1c(Cl)c(Cl)c(Cl)c(C#N)c1Cl` [chlorothalonil]: the “diseased area ratio to non-treated section” value in the assay with Sphaerotheca fuliginea (partner fungicide alone 4 ppm) amounted to 77.5; with Sphaerotheca fuliginea (partner fungicide alone 16 ppm), 37.5.

For `Fc1ccc(Oc2ccnc3cc(Cl)cc(Cl)c23)cc1` [quinoxyfen], the “diseased area ratio to non-treated section” value in the assay with Erysiphe graminis (fungicide (b) alone 0.06 ppm) was determined as 80.0; in the assay on Erysiphe graminis (fungicide (b) alone 0.125 ppm) it was 77.5.

With `CC(C)(C)C(O)(CCc1ccc(Cl)cc1)Cn1cncn1` (stereo not shown) [tebuconazole], the “diseased area ratio to non-treated section” value in the assay with Erysiphe graminis (fungicide (b) alone 0.5 ppm) was 10.0; with Erysiphe graminis (fungicide (b) alone 1 ppm), 5.0.

Consider `CC(C1CC1)C(O)(Cn1cncn1)c1ccc(Cl)cc1` (stereo not shown) [cyproconazole], for which the entries for the “diseased area ratio to non-treated section” value with Erysiphe graminis (fungicide (b) alone 0.125 ppm) and with Erysiphe graminis (fungicide (b) alone 0.5 ppm) were 97.5 and 60.0, respectively.

Consider `CC1(C(=O)Nc2ccc(O)c(Cl)c2Cl)CCCCC1` [fenhexamid], for which the “diseased area ratio to non-treated section” value amounted to 52.5 in the assay with Sphaerotheca fuliginea (setting [1]), 52.5 with Sphaerotheca fuliginea (setting [2]) and 50.0 in the assay with Sphaerotheca fuliginea (setting [3]).

`COc1cc(C)c(C(=O)c2c(OC)ncc(Br)c2Cl)c(OC)c1OC` [Compound C, 3-(2,3,4-trimethoxy-6-methylbenzoyl)-5-bromo-4-chloro-2-methoxypyridine]: the figures for the “diseased area ratio to non-treated section” value in the assay with Erysiphe graminis (setting [4]) and in the assay on Erysiphe graminis (setting [5]) were 37.5 and 6.0, respectively.

Consider `CC12CC1(C)C(=O)N(c1cc(Cl)cc(Cl)c1)C2=O` (stereo not shown) [procymidone], for which the “diseased area ratio to non-treated section” value is recorded as 85.0 in the assay on Sphaerotheca fuliginea (setting [1]), 82.5 with Sphaerotheca fuliginea (setting [2]) and 70.0 in the assay with Sphaerotheca fuliginea (setting [3]).

With `[Cl-].[Cu+2].[Cu+2].[OH-].[OH-].[OH-]` [copper oxychloride], the “diseased area ratio to non-treated section” value in the assay on Sphaerotheca fuliginea (setting [2]) was 25.0; in the assay with Sphaerotheca fuliginea (setting [3]), 21.9; in the assay with Sphaerotheca fuliginea (partner fungicide alone 1000 ppm), 20.7 and 20.6.

With `CC(C)Oc1ccc(C(=O)C(C)(C)NC(=O)c2ncccc2C(F)(F)F)cc1` [No. 7], the “diseased area ratio to non-treated section” value turned out to be 81.3 in the assay on Sphaerotheca fuliginea (Compound No.x alone 1 ppm), 75.0 in the assay with Sphaerotheca fuliginea (Compound No.x alone 2 ppm) and 56.3 in the assay on Sphaerotheca fuliginea (Compound No.x alone 4 ppm).

For the molecule `COP(=S)(OC)Oc1c(Cl)cc(C)cc1Cl` [tolclofosmethyl], the “diseased area ratio to non-treated section (experimental value)” value with Sphaerotheca fuliginea (single use at 100 ppm) is given as 80.0.

Turning to `CC(C)Oc1cccc(NC(=O)c2ccccc2C(F)(F)F)c1` [flutolanil], the “diseased area ratio to non-treated section” value was found to be 7.5 in the assay on Erysiphe graminis (fungicide (b) alone 500 ppm) and 12.5 with Erysiphe graminis (fungicide (b) alone 1000 ppm).

In the case of `COc1cc(C)c(C(=O)c2c(OC)ncc(Cl)c2C)c(OC)c1OC` [Compound D, 3-(2,3,4-trimethoxy-6-methylbenzoyl)-5-chloro-2-methoxy-4-methylpyridine], the “diseased area ratio to non-treated section” value in the assay with Erysiphe graminis (partner fungicide alone 0.06 ppm) is 27.5; in the assay with Erysiphe graminis (setting [4]), 15.0.

With `N=C(N)NCCCCCCCCNCCCCCCCCNC(=N)N` [iminoctadine], the “diseased area ratio to non-treated section” value in the assay with Sphaerotheca fuliginea (partner fungicide alone 4 ppm) is recorded as 65.0; in the assay with Sphaerotheca fuliginea (partner fungicide alone 8 ppm), 45.0; in the assay on Sphaerotheca fuliginea (partner fungicide alone 16 ppm), 30.0.

As to `Fc1ccc([C@]2(Cn3cncn3)O[C@H]2c2ccccc2Cl)cc1` (racemic) [epoxiconazole], the results for the “diseased area ratio to non-treated section” value with Erysiphe graminis (fungicide (b) alone 0.5 ppm) and in the assay on Erysiphe graminis (fungicide (b) alone 1 ppm) were 21.2 and 3.0, respectively.

Regarding `COc1cc(C)c(C(=O)c2c(OC)cnc(Cl)c2C(F)(F)F)c(OC)c1OC` [Compound B, 4-(2,3,4-trimethoxy-6-methylbenzoyl)-2-chloro-3-trifluoromethyl-5-methoxypyridine], the “diseased area ratio to non-treated section” value in the assay with Erysiphe graminis (setting [4]) is recorded as 50.0; in the assay with Erysiphe graminis (setting [5]), 30.0.

As for polyoxins, the “diseased area ratio to non-treated section” value in the assay on Sphaerotheca fuliginea (setting [1]) came out at 40.0; with Sphaerotheca fuliginea (setting [2]), 35.0.

As to `CC1COC(Cn2cncn2)(c2ccc(Oc3ccc(Cl)cc3)cc2Cl)O1` (stereo not shown) [difenoconazole], the “diseased area ratio to non-treated section” value in the assay on Sphaerotheca fuliginea (partner fungicide alone 8 ppm) was 31.3; in the assay with Sphaerotheca fuliginea (partner fungicide alone 16 ppm), 9.4; in the assay on Sphaerotheca fuliginea (partner fungicide alone 31 ppm) it was 8.1.

In the case of `COC(=O)N(OC)c1ccccc1COc1ccn(-c2ccc(Cl)cc2)n1` [pyraclostrobin], in the assay on Sphaerotheca fuliginea (single use at 100 ppm), the “diseased area ratio to non-treated section (experimental value)” value was found to be 100.

On to `Cc1cc(O)no1` [hymexazol], for which the “diseased area ratio to non-treated section” value with Sphaerotheca fuliginea (partner fungicide alone 100 ppm) amounted to 95.0.

With `CCCCC(O)(Cn1cncn1)c1ccc(Cl)cc1Cl` (stereo not shown) [hexaconazole], the “diseased area ratio to non-treated section” value worked out at 95.0 in the assay on Sphaerotheca fuliginea (partner fungicide alone 2 ppm), 85.0 with Sphaerotheca fuliginea (partner fungicide alone 4 ppm) and 75.0 with Sphaerotheca fuliginea (partner fungicide alone 8 ppm).

As for `COc1cc(C)c(C(=O)c2c(Cl)cnc(Cl)c2C(F)(F)F)c(OC)c1OC` [Compound A, 4-(2,3,4-trimethoxy-6-methylbenzoyl)-2,5-dichloro-3-trifluoromethylpyridine], the “diseased area ratio to non-treated section” value in the assay on Erysiphe graminis (setting [4]) is given as 65.

Take mancozeb: the “diseased area ratio to non-treated section” value in the assay with Sphaerotheca fuliginea (setting [1]) came to 50.0; in the assay with Sphaerotheca fuliginea (setting [2]), 31.3.

`CC(C)NC(=O)N1CC(=O)N(c2cc(Cl)cc(Cl)c2)C1=O` [iprodione]: the “diseased area ratio to non-treated section” value in the assay with Sphaerotheca fuliginea (setting [1]) came out at 60.0; with Sphaerotheca fuliginea (setting [2]), 45.0; in the assay on Sphaerotheca fuliginea (setting [3]), 45.0.

For `CC(Cc1ccc(C(C)(C)C)cc1)CN1CCCCC1` (stereo not shown) [fenpropidin], the “diseased area ratio to non-treated section” value in the assay with Erysiphe graminis (fungicide (b) alone 12.5 ppm) is recorded as 27.5; with Erysiphe graminis (fungicide (b) alone 25 ppm) it was 2.0; in the assay with Erysiphe graminis (fungicide (b) alone 50 ppm), 1.0.

Consider `COC(=O)NC(=S)Nc1ccccc1NC(=S)NC(=O)OC` [thiophanate-methyl], for which the “diseased area ratio to non-treated section” value in the assay on Sphaerotheca fuliginea (partner fungicide alone 63 ppm) worked out at 75.0; with Sphaerotheca fuliginea (setting [1]), 65.0.

For the molecule `COc1ccc(C(=CC(=O)N2CCOCC2)c2ccc(Cl)cc2)cc1OC` [dimethomorph], the “diseased area ratio to non-treated section (experimental value)” value in the assay with Sphaerotheca fuliginea (single use at 500 ppm) was 95.0.

`Cc1ccc(-c2c(Cl)nc(C#N)n2S(=O)(=O)N(C)C)cc1` [cyazofamid, reference compound]: the “diseased area ratio to non-treated section” value in the assay on Sphaerotheca fuliginea (fungicide (b) alone 63 ppm) was 80.0; in the assay on Sphaerotheca fuliginea (fungicide (b) alone 125 ppm) it was 57.5; in the assay on Sphaerotheca fuliginea (partner fungicide alone 63 ppm), 70.0; in the assay with Sphaerotheca fuliginea (setting [1]) it was 57.5.

As to `Cc1cc(C)nc(Nc2ccccc2)n1` [pyrimethanil], the “diseased area ratio to non-treated section” value in the assay on Sphaerotheca fuliginea (partner fungicide alone 25 ppm) is 90.0.

With `O=C1c2ccccc2C(=O)N1SC(Cl)(Cl)Cl` [folpet], the “diseased area ratio to non-treated section” value in the assay with Sphaerotheca fuliginea (setting [1]) was 84.4; in the assay with Sphaerotheca fuliginea (setting [2]), 84.4; in the assay on Sphaerotheca fuliginea (setting [3]), 81.3.

As to `O=C([O-])O.[K+]` [potassium bicarbonate], the “diseased area ratio to non-treated section (experimental value)” value was 25.0 in the assay with Sphaerotheca fuliginea (single use at 100 ppm) and 20.0 in the assay with Sphaerotheca fuliginea (single use at 1000 ppm).

(Values after US8568755B2 (priority 2007, dated 2013).)
